Values of other authors, collected in patent US7838696B2, “Hydroconversion process employing multi-metallic catalysts and method for making thereof” (Chevron U. S. A. Inc., priority 2007, dated 2010).

Test system: rats
Settings: rat, in vivo, po

O=CC(=O)O [glyoxylic, glyoxylic acid]
LD50: 3000 mg/kg
